What was measured:
[1] = tested on: CHO cells; assay: Contents of sphingolipids and phospholipids in cells; type: cell-based, Chinese hamster; conditions: 2.5 μM, 2 days
Procedure: CHO cells are seeded at density of 10×10^6 cells in 20 mL of F12 medium containing 10% NBS by per 150-mm dish, and incubated at 33° C. overnight. Then, after washed twice with 10 mL of serum-free F 12 medium, the cells are incubated in 20 mL of Nutridoma medium supplemented with or without 2.5 μM HPA-12 for 2 days. Each medium is replaced every 24 hours. After washed with PBS, the cells are harvested by scraping, and re-suspended in PBS. Then, lipids are extracted from the cells.
For analysis of phospholipids, extracted lipids are separated by TLC with a solvent of chloroform/methanol/acetic acid/H2O (volume ratio, 25:15:4:2).
Phosphorous contents in phospholipids are measured by the method disclosed in Document 4.
Contents of GlcCer and N-acetyl neuraminil lactosylseramide (GM3) are determined by densitometric analysis of lipids stained with Coomassie Brilliant Blue disclosed in Document 5.
Cer contents are determined by using a sn-1,2-diacylglycerol assay reagent kit (Amersham Pharmcia Biotech).

[2] = tested on: de novo synthesis of SM in CHO cells; assay: Metabolic labeling of lipids with [14C]serine in CHO cells; type: cell-based, Chinese hamster
Procedure: CHO cells are cultured in Ham's F12 medium supplemented with 10% newborn bovine serum (NBS), penicillin G (100 unit/mL) and streptomycin sulfate (100 μg/mL) at the temperature of 33° C. and 5% CO2 atmosphere. In the case of HeLa cells, Dulbecco's minimum essential medium is used as a base medium instead of Ham's F12 medium.
Further, Nutridoma medium (Ham's F12 medium containing 1% Nutridoma-SP, product of Roche Molecular Biochemicals, and 25 μg/mL of gentamicin) is used as a serum-free medium. In the case when the medium is supplemented by DMSO or drugs dissolved in DMSO, the concentration of DMSO in culture medium is adjusted to be 0.01%.
CHO cells are seeded at the density of 1.0×10^6 cell in 5 mL of F12 medium containing 10% NBS, by per 60-mm dish, and cultured at 33° C. overnight. Then, the medium is changed to 1.5 mL of Nutridoma medium if necessary, various drugs are added and incubated at 4° C. for 15 minutes. Then, after addition of [^14C] serine (0.75 μCi) or [^14 C] choline (1.0 μCi) to the medium, cells were incubated at 33° C. for various periods of time.
Cells are washed twice with 2 mL of cold phosphate-buffered saline (PBS), and lysed with 900 μL of 0.1% sodium dodecyl sulfate (SDS). Then, 800 μL and 20 μL of lysate are used for lipid extraction and determination of protein concentration, respectively.
For the analysis of lipids labeled with [C^14C] serine, lipids were separated by TLC with a solvent consisting of methylacetate/n-propanol/chloroform/methanol/0.25%KCl (25:25:25:10:9, volume ratio) as a developing solvent.
Radioactive lipid separated on the TLC plates are detected with image analyzer depicted above. After the collection of gels from TLC plates by scraping, the radioactivity of each lipid is determined by liquid scintillation counting and normalized to the protein concentration of cells.

[3] = tested on: SM synthase; assay: SM synthase enzyme assay, CHO membrane fraction; type: biochemical, Chinese hamster
[4] = tested on: transport of Cer from the ER to the Golgi apparatus; assay: Intracellular redistribution and metabolism of C5-DMB-Cer; type: cell-based, Chinese hamster
Procedure: After CHO cells seeded in 60-mm dishes are cultured overnight, said CHO cells are labeled with 1 μM C5-DMB-Cer in 1.5 mL of Nutridoma medium at 4° C. for 30 minutes. Then, after obtained said cells are washed 3 times with F12 medium, said cells are incubated in Nutridoma medium in the presence or absence of 2.5 μM HPA-12 for 15 minutes at 4° C., and then further incubated at 33° C. for various periods of time.
After washed with PBS, the chased cells are lysed with 0.1% SDS as mentioned above. The lipids extracted from cell lysate are separated by high performance TLC with a solvent of chloroform/methanol/H2O (volume ratio, 65:25:4). Quantitative measurement of C5-DMB-SM and C5-DMB-Cer are performed by scraping gel from TLC plates, extracting by chloroform/methanol/H2O (volume ratio, 1:2:0.8), and by measuring DMB fluorescence (excitation wave length 480 nm, emission wave length 515 nm) of the extracted product.
After CHO cells grown on the glass coverslip (22-mm diameter) in 35 mm dishes are incubated in F12 medium containing 1 μM C5-DMB-Cer at 4[…] for 30 minutes for pulse label, washed three times with 1 mL of F12 medium, and incubated in 1 mL of Nutridoma medium in the presence or absence of 2.5 μM HPA-12 at 4° C. for 15 minutes. Then, the pulse-labeled cells are incubated at 33° C. for 15 minutes for chase, washed with PBS containing 0.125% glutaraldehyde at 4° C. for 5 minutes. […]

[5] = tested on: sphingosine N-acyl transferase; assay: Sphingosine N-acyl transferase activity, CHO membrane fraction; type: biochemical, Chinese hamster; conditions: 20 μM; data not shown
Procedure: Membrane fraction prepared from CHO cells is used as an enzyme source.
Serine palmitoyltransferase activity is determined by the method disclosed in Document 7, and sphingosine N-acyl transferase activity is determined by a modification of the method disclosed in Document 7.

[6] = tested on: SM synthesis in BFA-treated cells; assay: [14C]serine labeling in BFA-treated cells (ER and Golgi merged); type: cell-based, Chinese hamster; conditions: 1 μM; cells treated with 1 μg/mL BFA (FIG. 5)
Procedure: For the metabolic labeling by [^14C] serine in BFA-treated cells, the cells are preincubated with 1 μg/mL BFA in Nutridoma medium at 33° C. for 30 minutes, then, treated with or without 1 μM HPA-12 in the presence of 1 μg/mL BFA at 4° C. for 15 minutes prior to addition of [^14C] serine.

[7] = [14C]serine labeling, CHO cells
[8] = [14C]serine labeling, weaker than effect on SM (FIG. 2B)

CCCCCCCCCCCC(=O)NC(CO)CC(O)c1ccccc1 (stereo not drawn) [HPA-12, N-(3-hydroxy-1-hydroxymethyl-3-phenylprol)dodecaneamide]
content of GM3 [1]: 120 % of the drug-untreated contro
content of GlcCer [1]: 150 % of the drug-untreated contro
content of SM, lower than the drug-free control level by [1]: 30%
content of ceramide vs untreated [1]: no significant difference
Cer content ([1]; CHO cells): 0.40 ± 0.13 nmol/mg protein
GM3 content ([1]; CHO cells): 8.5 ± 0.8 nmol/mg protein
GlcCer content ([1]; CHO cells): 1.4 ± 0.1 nmol/mg protein
PC content (composition of phospholipids) ([1]; CHO cells): 47.5 ± 0.2 % of total lipids recovered
PE content (composition of phospholipids) ([1]; CHO cells): 30.6 ± 0.3 % of total lipids recovered
PI/PS content (composition of phospholipids) ([1]; CHO cells): 13.4 ± 0.3 % of total lipids recovered
SM content (composition of phospholipids) ([1]; CHO cells): 8.4 ± 0.1 % of total lipids recovered
content of total phospholipids ([1]; drug-treated cells): 315±2 nmol/mg protein
formation of [14C]SM ([2]; 0.1 μM, 2-hour labeling with [14C]serine (FIG. 2A)): significantly inhibits
formation of [14C] (SM), level relative to control ([2]; 1 μM, time course up to 5 hours (FIG. 2B)): approximately 30 % of the drug-free control level
formation of [14C]SM ([2]; 2.5 μM drug, [14C]serine labeling, CHO cells (FIG. 1B)): remarkably inhibited
concentration at which the inhibitory effect on [14C]SM formation reaches a plateau ([2]; 2-hour labeling with [14C]serine (FIG. 2A)): around 1 μM
formation of [14C]phosphatidylethanolamine (PE) [2, 7]: does not affect
formation of [14C]phosphatidylserine (PS) [2, 7]: does not affect
formation of [14C]Cer [2, 8]: significantly inhibited
formation of [14C]GlcCer [2, 8]: significantly inhibited
C6-NBD-SM formed (SM synthase activity) ([3]; 20 μM, substrate C6-NBD-Cer): 168.1 ± 1.7 pmol/mg protein/10 minutes
inhibition of SM synthase ([3]; 20 μM, substrate C6-NBD-Cer): Neither of SM synthase nor GlcCer synthase is inhibited
inhibition of SM synthase activity ([3]; substrate C5-DMB-Cer, data not shown): not observed
accumulation of DMB-fluorescence to the perinuclear Golgi region vs untreated control ([4]; 2.5 μM, chase at 33° C. for 15 minutes): clearly lower
inhibition of conversion of C5-DMB-Cer to C5-DMB-SM ([4]; HPA-12 treated cells, data not shown): 50%
activity of sphingosine N-acyl transferase [5]: does not affect
formation of [14C]serine-derived SM [6]: no longer inhibits

— patent US6888015B2, “Sphingolipid synthesis inhibitor” (Japan Science and Technology Agency, priority 2001, dated 2005)
